“Also recorded” adds a separate entry of the source.
What was measured:
[1] = test system: K7M2 mouse osteosarcoma cell line; assay: Invasion of K7M2 osteosarcoma tumour spheroids into 3D 1.5 mg/ml collagen-medium model ECM; type: cell-based; details: monitored for 14 days
Method: Bone extracellular matrix consists primarily of calcified collagen type I. Calcification is invariably disrupted around metastasizing osteosarcoma tumours, allowing tumour cells to migrate through the extracellular matrix. Thus, we chose to model the bone/osteosarcoma extracellular matrix with a 3D 1.5 mg/ml collagen gel. This concentration of collagen gel promoted invasion by the K7M2 mouse osteosarcoma cell line (FIG. 9).
Collagen gels (1.5 mg/ml) in DMEM complete medium as model bone extracellular matrix was prepared from a stock 5 wt % collagen gel (IBIDI, Germany). K7M2 cells were cultured in DMEM complete medium supplemented with 10% foetal calf serum, antibiotics, and pyruvate. The cultures were maintained in T-75 cm^2 culture flasks and incubated at 37° C. and 5% CO2 in a humidified incubator. At 70% confluence, cells were detached from the surface of the flasks after incubating for 2 min at room temperature with 4 ml of trypsin-EDTA. The cell suspension was then centrifuged at 1400 rpm for 5 min at room temperature to pellet the cells. […]
Cell invasion was monitored for 14 days (FIG. 10). […]

[2] = cited from earlier work
U87 GBM cells [3] = test system: U87 GBM cells
Method: Calcein AM (acetoxymethyl), a non-fluorescent ester derivative of the fluorescent calcein dye, was used to determine the viability and integrity of spheroids. Spheroids were soaked in 1 uM calcein-AM in live cell imaging buffer for 45 minutes in a humidified 5% CO2 incubator. After incubation, the calcein-AM solution was removed, spheroids were washed three times with PBS and transferred with 50 μl of media to the top of hyaluronic acid-serum gels in chamber slide wells prepared as above. In controls, spheroids were placed into the wells with 300 μl of MEM complete supplemented medium.
(§1) Migration of cells from the spheroids, cell viability and the vertical position of the spheroid in the well were recorded on days 4, 7 and 16 using bright field, epifluorescence or confocal microscopy, before the samples were returned to the incubator to continue the experiment.

U87 cells = details: different trientine concentrations in phosphate-buffered saline
Method: FIG. 6: A. Optical images showing the effect of crosslinking 3D model brain ECM ionically with 5, 10 and 20 mM trientine on the migration of glioblastoma U87 cells from tumour spheroids compared to controls with no trientine crosslinking. […] B. Quantification of the extent of cancer cell migration in the 3D model brain ECM with addition of different trientine concentrations. C.

U87 GBM cells [4] = assay: Migration and proliferation of cells from U87 tumour spheroids in 3D hyaluronic acid-serum model brain ECM; type: cell-based; details: 5, 10 and 20 mM trientine mixed into 2 wt % HA-serum model ECM; days 1, 3, 6, 10
From the text: We first established a 3D extracellular matrix (ECM) model for brain consisting of hyaluronic acid mixed with serum proteins to support GBM cell metabolism. We then used tumour spheroids, cultured from U87 GBM cell line cells, as 3D tumour models that we implanted into the hyaluronic acid-serum model brain ECM.
We fabricated hyaluronic acid-serum model brain ECMs containing 2 wt %, 3.5 wt % and 5 wt % hyaluronic acid to represent low, normal and high hyaluronic acid concentrations/levels of molecular entanglement with respect to brain extracellular matrix. The low hyaluronic acid concentration model ECMs can be expected to mimic an in vivo situation where there is substantial hyaluronic acid degradation and the high hyaluronic acid concentration was set to exceed the average hyaluronic acid concentration in brain ECM by 50%.
The different concentrations of hyaluronic acid-serum for model ECMs were prepared by mixing hyaluronic acid with MEM complete media and foetal calf serum. […]
as §1

For `COC(=O)C1=CO[C@@H](O)[C@@H]2C(CO)=CC[C@H]12` [genipin], which “cell invasion of model collagen extracellular matrix” value ([1]; 0.05 wt % genipin in 1.5 mg/ml collagen gel) is on record?
Its value is “only minimal invasion”.

And the “cell invasion of model collagen extracellular matrix” value ([1]; 0.3 wt % genipin in 1.5 mg/ml collagen gel)?
The value was “no observable cell invasion”.

And the acute toxicity ([2]; literature statement)?
Its acute toxicity is “low acute toxicity”.

What about the LD50 ([2]; mouse, in vivo, iv) of the same compound?
Its LD50 is 153 mg/kg.

Which “cell metabolic activity (calcein-AM staining)” value (U87 GBM cells [3]) does the source give for `Cc1cc2nc3c(=O)[nH]c(=O)nc-3n(C[C@H](O)[C@H](O)[C@H](O)CO)c2cc1C` [riboflavin] here?
Its value is “remained metabolically active”.

Which results are given for `NCCNCCNCCN` [trientine]?
toxicity to U87 cells (live/dead cell analysis) (U87 cells): non-toxic to U87 cells; cell migration from U87 tumour spheroids (U87 GBM cells [4]): inhibited in a trientine-concentration dependent manner; also recorded: clearly inhibited
